Results published in PubChem BioAssay AID2060902 (Molecular Pharmacology Branch, DTP, NCI, 2025).

Test system: 485368-065-R3-J5-PDC spheroids with HUVEC/MSC, viability
Experiment: Anticancer human tumor 485368-065-R3-J5-PDC patient-derived pancreatic carcinoma cell line growth inhibition [RAS]
Conditions: for IC50: curve of first compound; for viability, T/C: stronger effect = lower value
How it was run: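 Multi-cell-type spheroids: tumor cells plus HUVEC endothelial cells and mesenchymal stem cells. RAS-pathway inhibitors were combined with targeted agents, each dosed in half-log steps down from clinical Cmax, or from 10 microM when Cmax was unknown.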

[1] = second compound 0.0316 µM, first compound 0.00316 µM
[2] = second compound 0.0316 µM, first compound 0.01 µM
[3] = second compound 0.0316 µM, first compound 0.0316 µM
[4] = second compound 0.0316 µM, first compound 0.1 µM
[5] = second compound 0.1 µM, first compound 0.00316 µM
[6] = second compound 0.1 µM, first compound 0.01 µM
[7] = second compound 0.1 µM, first compound 0.0316 µM
[8] = second compound 0.1 µM, first compound 0.1 µM
[9] = second compound 0.316 µM, first compound 0.00316 µM
[10] = second compound 0.316 µM, first compound 0.01 µM
[11] = second compound 0.316 µM, first compound 0.0316 µM
[12] = second compound 0.316 µM, first compound 0.1 µM
[13] = second compound 1 µM, first compound 0.00316 µM
[14] = second compound 1 µM, first compound 0.01 µM
[15] = second compound 1 µM, first compound 0.0316 µM
[16] = second compound 1 µM, first compound 0.1 µM
[17] = second compound 0.00316 µM, first compound 0.0316 µM
[18] = second compound 0.00316 µM, first compound 0.1 µM
[19] = second compound 0.00316 µM, first compound 0.316 µM
[20] = second compound 0.00316 µM, first compound 1 µM
[21] = second compound 0.01 µM, first compound 0.0316 µM
[22] = second compound 0.01 µM, first compound 0.1 µM
[23] = second compound 0.01 µM, first compound 0.316 µM
[24] = second compound 0.01 µM, first compound 1 µM
[25] = second compound 0.0316 µM, first compound 0.316 µM
[26] = second compound 0.0316 µM, first compound 1 µM
[27] = second compound 0.1 µM, first compound 0.316 µM
[28] = second compound 0.1 µM, first compound 1 µM
[29] = second compound 0.316 µM, first compound 0.316 µM
[30] = second compound 0.316 µM, first compound 1 µM
[31] = second compound 1 µM, first compound 0.316 µM
[32] = second compound 1 µM, first compound 1 µM
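Note: spheroids exposed to agents for seven days before readout.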

CC(C)n1nc(-c2ccc3oc(N)nc3c2)c2c(N)ncnc21 + C#Cc1c(F)ccc2cc(O)cc(-c3ncc4c(N5CC6CCC(C5)N6)nc(OCC56CCCN5CC(F)C6)nc4c3F)c12
IC50 (second compound 0.0316 µM): 19.2 nM
IC50 (second compound 0.1 µM): 18.6 nM
IC50 (second compound 0.316 µM): 16.8 nM
IC50 (second compound 1 µM): 17.3 nM
IC50 (second compound 3.16 µM): 11.5 nM
IC50 (second compound 10 µM): < 0.316 nM
viability, T/C (second compound 0.0316 µM, first compound 0.000316 µM): 96.7%
viability, T/C (second compound 0.0316 µM, first compound 0.001 µM): 97%
viability, T/C [1]: 76.4%
viability, T/C [2]: 65.5%
viability, T/C [3]: 39.3%
viability, T/C [4]: 18.7%
viability, T/C (second compound 0.1 µM, first compound 0.000316 µM): 97.3%
viability, T/C (second compound 0.1 µM, first compound 0.001 µM): 90.6%
viability, T/C [5]: 88.9%
viability, T/C [6]: 65.7%
viability, T/C [7]: 36.4%
viability, T/C [8]: 18.7%
viability, T/C (second compound 0.316 µM, first compound 0.000316 µM): 99.8%
viability, T/C (second compound 0.316 µM, first compound 0.001 µM): 99.4%
viability, T/C [9]: 83.6%
viability, T/C [10]: 61.8%
viability, T/C [11]: 36.1%
viability, T/C [12]: 18.7%
viability, T/C (second compound 1 µM, first compound 0.000316 µM): 101%
viability, T/C (second compound 1 µM, first compound 0.001 µM): 96.8%
viability, T/C [13]: 82.8%
viability, T/C [14]: 63.6%
viability, T/C [15]: 35.7%
viability, T/C [16]: 17.8%
viability, T/C (second compound 3.16 µM, first compound 0.000316 µM): 71.3%
viability, T/C (second compound 3.16 µM, first compound 0.001 µM): 76.5%
viability, T/C (second compound 3.16 µM, first compound 0.00316 µM): 67.2%
viability, T/C (second compound 3.16 µM, first compound 0.01 µM): 52.9%
viability, T/C (second compound 3.16 µM, first compound 0.0316 µM): 28.9%
viability, T/C (second compound 3.16 µM, first compound 0.1 µM): 14.8%
viability, T/C (second compound 10 µM, first compound 0.000316 µM): 47.3%
viability, T/C (second compound 10 µM, first compound 0.001 µM): 36%
viability, T/C (second compound 10 µM, first compound 0.00316 µM): 32.2%
viability, T/C (second compound 10 µM, first compound 0.01 µM): 31.1%
viability, T/C (second compound 10 µM, first compound 0.0316 µM): 18.1%
viability, T/C (second compound 10 µM, first compound 0.1 µM): 13.1%

CC1(O)CCCC1n1c(=O)c(C(F)F)cc2cnc(NC3CCN(S(C)(=O)=O)CC3)nc21 (stereo unspecified) + C=CC(=O)N1CCN(c2nc(OCC3CCCN3C)nc3c(F)c(-c4nc(N)cc(C)c4C(F)(F)F)c(Cl)cc23)C(C)C1
IC50 (second compound 0.00316 µM): 402 nM
IC50 (second compound 0.01 µM): 314 nM
IC50 (second compound 0.0316 µM): 298 nM
IC50 (second compound 0.1 µM): 258 nM
IC50 (second compound 0.316 µM): 429 nM
IC50 (second compound 1 µM): 750 nM
viability, T/C [17]: 109%
viability, T/C [18]: 68.7%
viability, T/C [19]: 46.7%
viability, T/C [20]: 48.2%
viability, T/C (second compound 0.00316 µM, first compound 3.16 µM): 40.6%
viability, T/C (second compound 0.00316 µM, first compound 10 µM): 11.1%
viability, T/C [21]: 107%
viability, T/C [22]: 69.5%
viability, T/C [23]: 45.3%
viability, T/C [24]: 38.8%
viability, T/C (second compound 0.01 µM, first compound 3.16 µM): 42.1%
viability, T/C (second compound 0.01 µM, first compound 10 µM): 12.6%
viability, T/C [3]: 99.3%
viability, T/C [4]: 62.2%
viability, T/C [25]: 44.4%
viability, T/C [26]: 42.2%
viability, T/C (second compound 0.0316 µM, first compound 3.16 µM): 45.9%
viability, T/C (second compound 0.0316 µM, first compound 10 µM): 11.3%
viability, T/C [7]: 93.9%
viability, T/C [8]: 62.8%
viability, T/C [27]: 38.3%
viability, T/C [28]: 41.9%
viability, T/C (second compound 0.1 µM, first compound 3.16 µM): 47.6%
viability, T/C (second compound 0.1 µM, first compound 10 µM): 10.6%
viability, T/C [11]: 99.7%
viability, T/C [12]: 64.8%
viability, T/C [29]: 51.8%
viability, T/C [30]: 42%
viability, T/C (second compound 0.316 µM, first compound 3.16 µM): 43.4%
viability, T/C (second compound 0.316 µM, first compound 10 µM): 12.5%
viability, T/C [15]: 109%
viability, T/C [16]: 60%
viability, T/C [31]: 41.3%
viability, T/C [32]: 55.7%
viability, T/C (second compound 1 µM, first compound 3.16 µM): 44.9%
viability, T/C (second compound 1 µM, first compound 10 µM): 11.1%

Nc1ccn(C2OC(CO)C(O)C2(F)F)c(=O)n1 (stereo unspecified) + C=CC(=O)N1CCN(c2nc(OCC3CCCN3C)nc3c(F)c(-c4nc(N)cc(C)c4C(F)(F)F)c(Cl)cc23)C(C)C1
IC50 (second compound 0.00316 µM): 6.42 nM
IC50 (second compound 0.01 µM): 6.43 nM
IC50 (second compound 0.0316 µM): 6.5 nM
IC50 (second compound 0.1 µM): 6.18 nM
IC50 (second compound 0.316 µM): 6.26 nM
IC50 (second compound 1 µM): 6.1 nM
viability, T/C (second compound 0.00316 µM, first compound 0.00316 µM): 107%
viability, T/C (second compound 0.00316 µM, first compound 0.01 µM): 14.7%
viability, T/C [17]: 10.7%
viability, T/C [18]: 9.52%
viability, T/C [19]: 8.08%
viability, T/C [20]: 10.4%
viability, T/C (second compound 0.01 µM, first compound 0.00316 µM): 104%
viability, T/C (second compound 0.01 µM, first compound 0.01 µM): 16.8%
viability, T/C [21]: 9.83%
viability, T/C [22]: 7.76%
viability, T/C [23]: 10.4%
viability, T/C [24]: 9.94%
viability, T/C [1]: 103%
viability, T/C [2]: 18.4%
viability, T/C [3]: 12.1%
viability, T/C [4]: 9.22%
viability, T/C [25]: 9.83%
viability, T/C [26]: 10.7%
viability, T/C [5]: 97%
viability, T/C [6]: 16.3%
viability, T/C [7]: 9.86%
viability, T/C [8]: 7.88%
viability, T/C [27]: 9.19%
viability, T/C [28]: 9.27%
viability, T/C [9]: 101%
viability, T/C [10]: 15.3%
viability, T/C [11]: 8.44%
viability, T/C [12]: 8.63%
viability, T/C [29]: 9.97%
viability, T/C [30]: 11%
viability, T/C [13]: 89.7%
viability, T/C [14]: 20.2%
viability, T/C [15]: 11.6%
viability, T/C [16]: 9.69%
viability, T/C [31]: 11.4%
viability, T/C [32]: 11.8%
